The first assay concerns the target T1, Polyunsaturated fatty acid 5-lipoxygenase (Homo sapiens, UniProt P09917).
T1 sequence (P09917 whole entry): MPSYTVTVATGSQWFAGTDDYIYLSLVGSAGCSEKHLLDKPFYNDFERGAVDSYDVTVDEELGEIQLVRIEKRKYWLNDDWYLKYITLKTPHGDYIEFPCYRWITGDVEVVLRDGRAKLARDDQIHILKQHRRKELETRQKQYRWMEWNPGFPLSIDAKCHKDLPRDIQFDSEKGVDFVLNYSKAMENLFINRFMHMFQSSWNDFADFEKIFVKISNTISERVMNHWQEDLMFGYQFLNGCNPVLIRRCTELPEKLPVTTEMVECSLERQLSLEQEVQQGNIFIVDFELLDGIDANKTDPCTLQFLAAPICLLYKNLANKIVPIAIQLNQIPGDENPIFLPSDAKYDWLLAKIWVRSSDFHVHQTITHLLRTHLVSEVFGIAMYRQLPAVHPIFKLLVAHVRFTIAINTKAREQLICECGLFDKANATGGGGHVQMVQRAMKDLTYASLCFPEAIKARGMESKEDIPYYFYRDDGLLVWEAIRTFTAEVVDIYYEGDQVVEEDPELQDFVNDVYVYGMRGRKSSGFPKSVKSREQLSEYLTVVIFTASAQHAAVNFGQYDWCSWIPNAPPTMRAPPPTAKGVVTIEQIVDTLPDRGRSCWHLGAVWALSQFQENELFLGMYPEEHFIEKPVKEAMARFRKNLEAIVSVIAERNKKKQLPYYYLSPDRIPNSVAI
Nature of the assay: Inhibition of 5-LOX (unknown origin) using linoleic acid as substrate preincubated for 5 mins followed by substrate addition by absorbance based analysis.
Conditions: not given
In the case of `O=C(c1cccs1)c1sc(N2CCOCC2)nc1-c1ccc(F)cc1`, the IC50 (usually the point on the concentration scale where inhibition reaches its midpoint) was found to be 380 nM. `O=C(c1cccs1)c1sc(N(c2ccccc2)c2ccccc2)nc1-c1ccccc1` showed an IC50 of 380 nM. That is a sub-micromolar value. On the same count and under the same terms, with `O=C(/N=c1/scc(-c2ccccc2)n1-c1ccccc1)c1cccs1` the figure was 380 nM; with `O=C(/N=c1\scc(-c2ccc(F)cc2)n1-c1ccccc1)c1cccs1`, 380 nM; with `N#Cc1ccc(-c2cs/c(=N\C(=O)c3cccs3)n2-c2ccccc2)cc1`, 380 nM.

In turn, `O=C(/N=c1\scc(-c2ccc(C(F)(F)F)cc2)n1-c1ccccc1)c1cccs1` returned an IC50 of 380 nM. On the same count and under the same terms, with `O=C(c1cccs1)c1sc(N2CCOCC2)nc1-c1ccccc1` the figure was 380 nM; with `N#Cc1ccc(-c2nc(N(c3ccccc3)c3ccccc3)sc2C(=O)c2cccs2)cc1`, 380 nM. The same measure, in the same setting: for `O=C(c1cccs1)c1sc(N2CCOCC2)nc1-c1ccc([N+](=O)[O-])cc1` the value was 380 nM. Still for that read-out and setting: with `O=C(c1cccs1)c1sc(N(c2ccccc2)c2ccccc2)nc1-c1ccc([N+](=O)[O-])cc1` the figure was 380 nM; with `O=C(c1cccs1)c1sc(N(c2ccccc2)c2ccccc2)nc1-c1ccc(C(F)(F)F)cc1`, 380 nM; with `Cc1ccc(-c2nc(N(c3ccccc3)c3ccccc3)sc2C(=O)c2cccs2)cc1`, 380 nM.

As for `Cc1ccc(-c2nc(N3CCOCC3)sc2C(=O)c2cccs2)cc1`, half-maximal inhibition (IC50) required 380 nM. On the same count and under the same terms, for `O=C(/N=c1\scc(-c2ccc([N+](=O)[O-])cc2)n1-c1ccccc1)c1cccs1` the value was 380 nM. On the same count and under the same terms, for `Cc1ccc(-c2cs/c(=N\C(=O)c3cccs3)n2-c2ccccc2)cc1` the value was 380 nM; for `O=C(c1cccs1)c1sc(Nc2ccccc2)nc1-c1ccc(F)cc1`, 380 nM. On the same count and under the same terms, for `O=C(c1cccs1)c1sc(N(c2ccccc2)c2ccccc2)nc1-c1ccc(F)cc1` the value was 380 nM; for `N#Cc1ccc(-c2nc(N3CCOCC3)sc2C(=O)c2cccs2)cc1`, 380 nM. With `O=C(c1cccs1)c1sc(N2CCOCC2)nc1-c1ccc(C(F)(F)F)cc1`, half-maximal inhibition (IC50) required 380 nM.

A further assay deals with T2, Prostaglandin G/H synthase 2 (Homo sapiens, UniProt P35354).
T2 sequence (P35354 whole entry): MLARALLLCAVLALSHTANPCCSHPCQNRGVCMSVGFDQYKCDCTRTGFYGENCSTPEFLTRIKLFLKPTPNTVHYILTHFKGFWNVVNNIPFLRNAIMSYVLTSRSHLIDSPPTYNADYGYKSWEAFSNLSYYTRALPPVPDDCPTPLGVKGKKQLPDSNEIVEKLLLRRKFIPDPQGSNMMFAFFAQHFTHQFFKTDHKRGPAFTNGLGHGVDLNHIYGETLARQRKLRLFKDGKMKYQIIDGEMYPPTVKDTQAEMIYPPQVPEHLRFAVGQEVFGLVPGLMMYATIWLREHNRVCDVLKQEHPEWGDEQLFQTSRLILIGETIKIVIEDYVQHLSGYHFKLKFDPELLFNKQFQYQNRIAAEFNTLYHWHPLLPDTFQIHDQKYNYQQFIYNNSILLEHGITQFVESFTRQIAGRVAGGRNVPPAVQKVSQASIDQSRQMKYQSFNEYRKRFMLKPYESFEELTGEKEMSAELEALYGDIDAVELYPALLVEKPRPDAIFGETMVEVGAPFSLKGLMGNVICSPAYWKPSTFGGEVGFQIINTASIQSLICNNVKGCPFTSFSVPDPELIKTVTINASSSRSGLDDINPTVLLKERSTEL
Briefly: Inhibition of COX-2 (unknown origin) by colorimetric assay.
Conditions: not given
With `C=CCc1ccc(-n2c(-c3cc(NCCCC)c(Oc4ccccc4)c(S(N)(=O)=O)c3)n[nH]c2=S)cc1`, the 50% inhibitory concentration (IC50) was determined as 4590 nM. The compound `CCCCNc1cc(C(=O)N/N=c2\scc(-c3ccc(C)cc3)n2-c2ccc(Br)cc2)cc(S(N)(=O)=O)c1Oc1ccccc1` registered an IC50 of 1520 nM. Compared with the last compound, the IC50 is about 3-fold lower. Same read-out and setting: for `C=CCn1c(-c2ccc(C)cc2)cs/c1=N\NC(=O)c1cc(NCCCC)c(Oc2ccccc2)c(S(N)(=O)=O)c1` the value was 1520 nM.

Compound `CCCCNc1cc(C(=O)N/N=c2\scc(-c3ccc(C)cc3)n2-c2ccccc2)cc(S(N)(=O)=O)c1Oc1ccccc1` gave an IC50 of 1520 nM.

In turn, `CCCCNc1cc(C(=O)n2nc(C)cc2C)cc(S(N)(=O)=O)c1Oc1ccccc1` displayed a half-maximal inhibitory concentration (IC50) of 4750 nM. Still for that read-out and setting: with `CCCCNc1cc(C(=O)N/N=c2\scc(-c3ccc(OC)cc3)n2-c2ccccc2)cc(S(N)(=O)=O)c1Oc1ccccc1` the figure was 1520 nM. The same measure, in the same setting: for `C=CCn1c(-c2ccc(OC)cc2)cs/c1=N\NC(=O)c1cc(NCCCC)c(Oc2ccccc2)c(S(N)(=O)=O)c1` the value was 1520 nM; for `C=CCn1c(-c2ccc(Cl)cc2)cs/c1=N\NC(=O)c1cc(NCCCC)c(Oc2ccccc2)c(S(N)(=O)=O)c1`, 1520 nM. Same read-out and setting: for `CCCCNc1cc(-c2n[nH]c(=S)n2-c2ccccc2)cc(S(N)(=O)=O)c1Oc1ccccc1` the value was 280 nM; for `CCCCNc1cc(C(=O)N/N=c2\scc(-c3ccc(Cl)cc3)n2-c2ccccc2)cc(S(N)(=O)=O)c1Oc1ccccc1`, 1520 nM; for `CCCCNc1cc(C(=O)N/N=c2\scc(-c3ccc(OC)cc3)n2-c2ccc(Br)cc2)cc(S(N)(=O)=O)c1Oc1ccccc1`, 1520 nM. Compound `CCCCNc1cc(C(=O)N/N=c2\scc(-c3ccc(Cl)cc3)n2-c2ccc(Br)cc2)cc(S(N)(=O)=O)c1Oc1ccccc1` yielded an IC50 of 1520 nM. As to `CCCCNc1cc(-c2n[nH]c(=S)o2)cc(S(N)(=O)=O)c1Oc1ccccc1`, the IC50 was 5730 nM. On the same count and under the same terms, for `CCCCNc1cc(C(=O)N2N=C(C)CC2=O)cc(S(N)(=O)=O)c1Oc1ccccc1` the value was 5110 nM.

For a further assay, the target named is T3, Polyunsaturated fatty acid lipoxygenase ALOX15 (Homo sapiens, UniProt P16050).
T3 sequence (P16050 whole entry): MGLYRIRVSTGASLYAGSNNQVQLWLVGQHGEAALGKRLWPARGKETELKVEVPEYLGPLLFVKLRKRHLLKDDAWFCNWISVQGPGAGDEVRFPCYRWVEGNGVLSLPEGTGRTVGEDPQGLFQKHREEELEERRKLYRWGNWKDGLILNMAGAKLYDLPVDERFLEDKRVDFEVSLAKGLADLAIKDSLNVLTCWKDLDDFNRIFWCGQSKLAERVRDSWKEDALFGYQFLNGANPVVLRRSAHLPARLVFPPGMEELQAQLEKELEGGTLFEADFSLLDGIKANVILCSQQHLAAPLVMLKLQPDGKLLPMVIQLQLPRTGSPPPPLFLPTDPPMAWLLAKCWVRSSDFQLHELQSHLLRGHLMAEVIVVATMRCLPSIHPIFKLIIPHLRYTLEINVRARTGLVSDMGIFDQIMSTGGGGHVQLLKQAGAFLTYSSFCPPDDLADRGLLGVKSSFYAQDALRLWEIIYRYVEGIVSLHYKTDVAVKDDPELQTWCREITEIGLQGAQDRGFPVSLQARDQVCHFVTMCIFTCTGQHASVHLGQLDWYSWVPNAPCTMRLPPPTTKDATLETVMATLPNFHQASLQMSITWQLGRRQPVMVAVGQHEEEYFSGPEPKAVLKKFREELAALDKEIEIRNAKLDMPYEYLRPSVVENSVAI
Briefly: Inhibition of 15-LOX (unknown origin).
Conditions: not given
With `Cc1nnc(/N=C2\NC(=O)/C(=C/c3ccc(O)cc3)S2)s1`, the IC50 is 3110 nM.

For the compound `Cc1nnc(/N=C2\NC(=O)/C(=C/c3ccc(Cl)cc3)S2)s1`, the IC50 came to 3110 nM. This counts as single-digit micromolar. As for `COc1ccc(/C=C2\S/C(=N/c3nnc(C)s3)NC2=O)cc1`, the IC50 amounted to 3110 nM. Still for that read-out and setting: with `O=C1CS/C(=N/c2nnc(-c3ccc(Br)cc3)s2)N1` the figure was 2540 nM. On the same count and under the same terms, for `O=C1CS/C(=N/c2nnc(-c3ccccc3O)s2)N1` the value was 2540 nM. Same read-out and setting: for `Cc1nnc(/N=C2\NC(=O)/C(=C/c3ccsc3)S2)s1` the value was 3360 nM; for `Cc1nnc(/N=C2\NC(=O)/C(=C/c3ccc(C(C)C)cc3)S2)s1`, 3110 nM. On to `Cc1nnc(/N=C2\NC(=O)/C(=C/C=C/c3ccccc3)S2)s1`, for which half-maximal inhibition (IC50) was put at 3360 nM.

Regarding `Cc1ccc(-c2nnc(/N=C3\NC(=O)CS3)s2)cc1`, half-maximal inhibition (IC50) was put at 2540 nM. Still for that read-out and setting: for `Cc1nnc(/N=C2\NC(=O)/C(=C/c3ccc(F)cc3)S2)s1` the value was 3110 nM.

With `Cc1nnc(/N=C2\NC(=O)/C(=C/c3ccc(N(C)C)cc3)S2)s1`, the IC50 came out at 3110 nM. Regarding `CC(c1cc2ccccc2s1)N(O)C(N)=O` (stereo not given) [ZILEUTON], the midpoint of inhibition, the IC50, lay at 15600 nM.

On to `Cc1nnc(/N=C2\NC(=O)CS2)s1`, for which the IC50 was 2540 nM. The compound `Cc1nnc(/N=C2\NC(=O)/C(=C/c3ccc(Br)cc3)S2)s1` registered a 50% inhibitory concentration (IC50) of 3110 nM.

As for `Cc1nnc(/N=C2\NC(=O)/C(=C/c3cccnc3)S2)s1`, it took 3360 nM to reach half-maximal inhibition (IC50). Same read-out and setting: with `Cc1nnc(/N=C2\NC(=O)/C(=C/C3CCCCC3)S2)s1` the figure was 3360 nM. Still for that read-out and setting: for `O=C1CS/C(=N/c2nnc(-c3ccc(O)cc3)s2)N1` the value was 2540 nM.

The target of another assay is T4, Prostaglandin G/H synthase 2 (Homo sapiens) (UniProt P35354).
T4 sequence (whole entry): T2 sequence (P35354 whole entry)
The note with it: dose 2-10 nM, time 1.0 min.
On to `CN1C/C(=C\c2ccc(Cl)s2)C2=NN(c3ccccc3)C(c3ccc(Cl)s3)C2C1` (stereo not given), for which the inhibition (commonly the change of the read-out against control, counted positive when it falls) is less than 98%. Same read-out and setting: with `CCc1ccc(/C=C2\CN(C)CC3C2=NN(c2ccccc2)C3c2ccc(CC)s2)s1` (stereo not given) the figure was less than 98%; with `CN1C/C(=C\c2ccc(Br)s2)C2=NN(c3ccccc3)C(c3ccc(Br)s3)C2C1` (stereo not given), less than 98%; with `CN1C/C(=C\c2ccc(F)s2)C2=NN(c3ccccc3)C(c3ccc(F)s3)C2C1` (stereo not given), less than 98%. Same read-out and setting: for `CN1C/C(=C\c2ccc(O)s2)C2=NN(c3ccccc3)C(c3ccc(O)s3)C2C1` (stereo not given) the value was less than 98%. Still for that read-out and setting: for `Cc1sc(/C=C2\CN(C)CC3C2=NN(c2ccccc2)C3c2cc(F)c(C)s2)cc1F` (stereo not given) the value was less than 98%; for `CN1C/C(=C\c2cccs2)C2=NN(c3ccccc3)C(c3cccs3)C2C1` (stereo not given), less than 98%. `Cc1ccc(/C=C2\CN(C)CC3C2=NN(c2ccccc2)C3c2ccc(C)s2)s1` (stereo not given) had an inhibition of less than 98%. The same measure, in the same setting: for `Cc1csc(/C=C2\CN(C)CC3C2=NN(c2ccccc2)C3c2cc(C)cs2)c1` (stereo not given) the value was less than 98%; for `Cc1sc(/C=C2\CN(C)CC3C2=NN(c2ccccc2)C3c2cc(Br)c(C)s2)cc1Br` (stereo not given), less than 98%.

For the origin of these results see ChEMBL document CHEMBL5241111, “Non-steroidal anti-inflammatory drugs: recent advances in the use of synthetic COX-2 inhibitors” (RSC Med Chem, 2022).
